Data taken from patent US20230190707A1, “COMPOSITIONS AND METHODS FOR ENHANCING CANCER IMMUNOTHERAPY” (FRED HUTCHINSON CANCER CENTER, priority 2020, published 2023).
Like-named read-outs stand apart in the source and are kept apart here.

Key:
[1] = tested on: donor T cells; assay: CFSE adoptive T cell transfer with in vivo splicing modulator treatment
Description: Splenic T cells were obtained from B6 or CD45.1 donors by CD5 positive selection (Miltenyi Biotec, Cat. 130-049-301), labeled with CellTrace CFSE (ThermoFisher Cat. C34570) at 10 μM, and adoptively transferred by tail vein injection into lethally irradiated B6, Balb/c, or LP/J recipients, with […] labeled donor T cells transferred per recipient. All recipients were irradiated on day −1 prior to adoptive T cell transfer with 7 Gy as a single fraction and continuously received splicing inhibitor drugs or vehicle control at the indicated doses, from day −1 until day of sacrifice, with the initial dose of drug at least 4 hours after lethal irradiation. Indisulam and MS-023 were solubilized for in vivo administration and animals were treated as above. Pladienolide B (Tocris, Cat. 6070) and GEX1A (Cayman Chemicals, Cat. 25136) were both dissolved in vehicle (10% ethanol and 4% Tween-80 in sterile PBS) and administered i.p., with pladienolide B dosed at 10 mg/kg every other day, and GEX1A dosed at 1.25 mg/kg every four days. For in vivo use, EPZ015666 was dissolved in DMSO and solubilized in 0.5% methylcellulose in water to 20 mg/mL; animals were treated daily with 200 mg/kg by oral gavage.

[2] = tested on: bone marrow hematopoietic stem and progenitor cells; assay: M3434 methylcellulose colony assay; assay type: cell-based, mouse
Description: 25,000 red blood cell-lysed bone marrow mononuclear cells from C57BL/6 mice were plated in duplicates or triplicates in each well of a non-tissue-culture treated 6 well plate with M3434 methylcellulose media in the presence of splicing drugs at the indicated concentrations as per manufacturer's instructions (StemCell Technologies, Cat. 03434) and incubated for seven days prior to quantification of colonies by manual microscopy.

[3] = tested on: CD5^+ splenic T cells; assay: Anti-CD3/CD28 T cell activation and proliferation (CFSE); assay type: cell-based, mouse; conditions: three days of continuous drug exposure
Description: Cell lines were grown with half-log10 concentrations of the indicated drug in 4 to 8 technical replicates under standard conditions until the control condition (DMSO or vehicle) was confluent by microscopy. For tumor cell lines, viable cells were quantified via the CellTiter-Glo® assay (Promega Cat. G7573) as per manufacturer instructions. For the ex vivo proliferation of T cells, viable cells were instead quantified via flow cytometry using counting beads. The percentage or number of viable cells with drug treatment was calculated relative to DMSO control (as 100%). […] For absolute cell number, Annexin V+, CD25+, and PD1+ flow cytometry data presented in Figure S4, dose-response models and IC50 values were computed using the R language's dre package (Ritz, C., et al. (2015). Dose-Response Analysis Using R. PLoS One 10, e0146021).
(§1) Plates were coated with 10 μg/mL anti-CD3 (clone 145-2C11, Biolegend Cat. 100302) and 2 μg/mL anti-CD28 (clone 37.51, Biolegend Cat. 102102) in PBS overnight at 4° C. and washed twice with cold PBS prior to use. CFSE-labeled CD5-selected splenic T cells from naïve C57BL/6J mice were obtained identically as for adoptive cell transfer, and 5×10^4 cells incubated with coated plates in the presence of splicing inhibitor drugs at the indicated concentrations, followed by analysis by standard flow cytometry on day 3. Of note, for RNA-seq analyses, T cells were not labeled with CFSE, and underwent activation for 4 days (96 hours) in the presence of various splicing modulator drugs to harmonize experimental conditions with RNA-seq analyses of tumors treated with splicing inhibitors. For the RNA-seq experiments only, T cells in all conditions were also incubated with IL-2 at 50 U/mL to maximize viability and yield.

[4] = tested on: T cells stimulated with anti-CD3 and CD28 antibodies; assay: Gene expression program of activated T cells (RNA-seq); assay type: cell-based, mouse; conditions: ex vivo anti-CD3 and CD28 stimulation in presence of drug
Description: as §1
Bulk lung and colon were homogenized using a Qiagen TissueRuptor. For all tissues and cell types, RNA was extracted using an RNeasy kit (Qiagen, Frederick, Md.) and quantified using a NanoDrop 8000 (ThermoFisher Scientific). A minimum of 500 ng of high-quality RNA (as determined by Agilent Bioanalyzer) per sample or replicate was used for library preparation. Poly(A)-selected, strand-specific (dUTP method) Illumina libraries were prepared with a modified TruSeq protocol and sequenced on the Illumina HiSeq 2000 (˜100M 2×101 bp paired-end reads per sample or replicate).

Compound	in vivo T cell proliferation or activation in response to alloantigen ([1]; mouse, in vivo)	hematopoiesis (colony formation) [2]	IC50 values, T cell proliferation following stimulation (in words) [3]	genes normally upregulated upon T cell activation [4]	in vivo T cell proliferation or activation in response to alloantigen ([1]; CD45.1 T cells into irradiated Balb/c or LP/J recipients, daily treatment)	hematopoiesis (colony formation) ([2]; micromolar doses, pladienolide B at nanomolar concentrations)
O=C(NC[C@H](O)CN1CCc2ccccc2C1)c1cc(NC2COC2)ncn1 [EPZ015666]	minimal impairment	suppressed hematopoiesis				
CO[C@H]([C@@H](C)[C@H]1O[C@]1(C)C[C@H](C)/C=C/C=C(\C)[C@H]1O[C@@H](CC(=O)O)CC[C@@H]1C)[C@@H](C)O [GEX1A, herboxidiene]			low nanomolar range			
pladienolide B			low nanomolar range	markedly attenuated	markedly suppressed T cell proliferation	even more profoundly suppressed hematopoiesis
